As a reminder, the IC50 is the concentration that gives 50% inhibition.

The values below come from patent US9573887B2, “Naphthalene derivative” (Daito Chemix Corporation, priority 2010, dated 2017).

The assay has as its target T1, Mouse VCP (Mus musculus, UniProt Q01853).
T1 construct: histidine tag (N); made in house; host or cells: Sf-9 insect cells (baculovirus vector pVL1392)
Kind of assay: ATPase activity of purified His-tagged VCP, [γ-32P]ATP, liberated phosphate by liquid scintillation. The class given is biochemical. The gist of the method:
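Liberated 32P-phosphate, extracted as a molybdate complex and counted by liquid scintillation, was the readout. Reactions used 500 ng Sf-9-expressed, Ni-purified His-VCP (mouse), 100 μM [γ-32P]ATP and varied test concentrations for 10 min at 37° C in HEPES pH 7.4 buffer with Mg2+ and DTT. IC50 derived by curve fitting.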

Where [1] appears, read: compounds of Examples, ATPase inhibitory activity, 500 ng VCP, 100 μM ATP, 37° C., 10 minutes.
Setting [2] is: compounds of Comparative Examples, determined in the same manner as the Examples.

Structures are written as SMILES. Where a name gives a salt, the structure may show the parent alone. Bounds are passed on as bounds.

T1 sequence (Q01853 whole entry): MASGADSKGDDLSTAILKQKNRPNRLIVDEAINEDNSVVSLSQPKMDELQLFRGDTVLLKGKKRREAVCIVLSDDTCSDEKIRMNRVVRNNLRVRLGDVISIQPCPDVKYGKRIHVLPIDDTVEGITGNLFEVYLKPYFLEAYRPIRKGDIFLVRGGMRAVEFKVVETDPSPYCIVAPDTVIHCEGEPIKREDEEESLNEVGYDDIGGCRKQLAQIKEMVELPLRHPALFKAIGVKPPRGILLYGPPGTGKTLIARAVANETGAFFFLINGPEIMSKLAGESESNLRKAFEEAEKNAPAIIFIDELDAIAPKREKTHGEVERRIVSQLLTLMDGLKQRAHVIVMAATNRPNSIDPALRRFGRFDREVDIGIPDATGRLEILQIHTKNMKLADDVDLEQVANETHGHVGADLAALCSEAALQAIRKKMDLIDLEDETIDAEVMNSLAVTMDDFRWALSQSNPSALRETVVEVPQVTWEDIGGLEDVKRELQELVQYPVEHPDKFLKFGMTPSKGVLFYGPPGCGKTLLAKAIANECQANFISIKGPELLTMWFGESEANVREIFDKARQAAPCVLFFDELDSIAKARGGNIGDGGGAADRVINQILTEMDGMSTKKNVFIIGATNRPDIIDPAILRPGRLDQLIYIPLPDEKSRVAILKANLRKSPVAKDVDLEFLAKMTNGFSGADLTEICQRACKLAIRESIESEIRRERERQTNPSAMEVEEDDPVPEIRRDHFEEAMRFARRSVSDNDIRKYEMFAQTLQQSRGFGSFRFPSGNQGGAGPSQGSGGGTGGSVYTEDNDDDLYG

On to `CCCOc1ccccc1-c1ccc(/N=N/c2cc(S(=O)(=O)O)c3ccccc3c2N)cn1` [Example 48, 4-amino-3-[6-(2-propoxyphenyl)pyridine-3-ylazo]naphthalene-1-sulfonic acid sodium salt], for which, under setting [1], the IC50 was found to be 127 nM.
The same measure, in the same setting: to `Cc1ccc(-c2ccc(/N=N/c3cc(S(=O)(=O)O)c4ccccc4c3N)cc2)cc1` [Example 125, 4-amino-3-(4′-methylbiphenyl-4-ylazo)naphthalene-1-sulfonic acid sodium salt] belongs 417 nM; to `Cc1ccc(C)c(-c2ccc(/N=N/c3cc(S(=O)(=O)O)c4ccccc4c3N)cn2)c1` [Example 34, 4-amino-3-[6-(2,5-dimethylphenyl)pyridine-3-ylazo]naphthalene-1-sulfonic acid sodium salt], 274 nM.
On to `CC(=O)c1cccc(-c2ccc(/N=N/c3cc(S(=O)(=O)O)c4ccccc4c3N)cn2)c1` [Example 15, 3-[6-(3-acetylphenyl)pyridine-3-ylazo]-4-aminonaphthalene-1-sulfonic acid sodium salt], for which, under setting [1], the IC50 is 189 nM.
On to `Nc1c(/N=N/c2c(Br)cc(Br)cc2Br)cc(S(=O)(=O)O)c2ccccc12` [Example 114, 4-amino-3-(2,4,6-tribromophenylazo)naphthalene-1-sulfonic acid sodium salt], for which, under setting [1], the IC50 turned out to be 99 nM.
On the same count and under the same terms, then `Nc1c(/N=N/c2cccnc2-c2cccnc2)cc(S(=O)(=O)O)c2ccccc12` [Example 51, 4-amino-3-([2,3′]-bipyridinyl3-ylazo)naphthalene-1-sulfonic acid sodium salt], with 3070 nM; and `Nc1c(/N=N/c2cccc(OCc3cccnc3)c2)cc(S(=O)(=O)O)c2ccccc12` [Example 138, 4-amino-3-[3-(pyridine-3-ylmethoxy)phenylazo]naphthalene-1-sulfonic acid sodium salt], with 516 nM; and `Nc1c(/N=N/c2ccc(-c3cccc(-c4ccccc4)c3)nc2)cc(S(=O)(=O)O)c2ccccc12` [Example 42, 4-amino-3-(6-biphenyl-3-ylpyridine-3-ylazo)naphthalene-1-sulfonic acid sodium salt], with 769 nM.
Regarding `N#Cc1cccc(-c2ccc(/N=N/c3cc(S(=O)(=O)O)c4ccccc4c3N)cn2)c1` [Example 44, 4-amino-3-[6-(3-cyanophenyl)pyridine-3-ylazo]naphthalene-1-sulfonic acid sodium salt], the IC50 under setting [1] came to 584 nM.
Same read-out and setting: then `COc1ccc(/N=N/c2cc(S(=O)(=O)O)c3ccccc3c2N)cn1` [Example 2, 4-amino-3-(6-methoxypyridine-3-ylazo)naphthalene-1-sulfonic acid sodium salt], with 571 nM; and `Nc1c(/N=N/c2ccc(-c3ccccc3OCCCCCCO)nc2)cc(S(=O)(=O)O)c2ccccc12` [Example 64, 4-amino-3-{6-[2-(6-hydroxyhexyloxy)phenyl]pyridine-3-ylazo}naphthalene-1-sulfonic acid sodium salt], with 324 nM.
For `Nc1c(/N=N/c2ccc(/C=C/c3ccccc3)nc2)cc(S(=O)(=O)O)c2ccccc12` [Example 30, 4-amino-3-(6-styrylpyridine-3-ylazo)naphthalenesulfonic acid sodium salt], the IC50 under setting [1] was found to be 1140 nM.
As to `Nc1ccc(S(=O)(=O)O)c2ccccc12` [Example 20, sodium salt], the half-maximal inhibitory concentration (IC50) under setting [2] was greater than 10000 nM.
Take `Nc1c(-c2ccccc2)cc(S(=O)(=O)O)c2ccccc12` [Example 26, sodium salt]: the IC50 under setting [2] was greater than 10000 nM.
Turning to `CCCOc1ccc(F)cc1-c1ccc(/N=N/c2cc(S(=O)(=O)O)c3ccccc3c2N)cn1` [Example 55, 4-amino-3-[6-(5-fluoro-2-propoxyphenyl)pyridine-3-ylazo]naphthalene-1-sulfonic acid sodium salt], the IC50 under setting [1] came out at 139 nM.
Turning to `Nc1c(/N=N/c2ccc(-c3ccccc3OCCCNC(=O)c3ccnc(Cl)c3)nc2)cc(S(=O)(=O)O)c2ccccc12` [Example 77, 4-amino-3-[6-(2-{3-[(2-chloropyridine-4-carbonyl)amino]propoxy}phenyl)pyridine-3-ylazo]naphthalene-1-sulfonic acid sodium salt], under setting [1], the IC50 worked out at 366 nM.
`Nc1c(/N=N/c2ccc(-c3ccccc3OCCCN3C(=O)c4ccccc4C3=O)nc2)cc(S(=O)(=O)O)c2ccccc12` [Example 78, 4-amino-3-(6-{2-[3-(1,3-dioxo-1,3-dihydroisoindole-2-yl)propoxy]phenyl}pyridine-3-ylazo)naphthalene-1-sulfonic acid sodium salt]: under setting [1], the IC50 stood at 402 nM.
With `Nc1c(/N=N/c2ccc(Cl)cc2Br)cc(S(=O)(=O)O)c2ccccc12` [Example 117, 4-amino-3-(2-bromo-4-chlorophenylazo)naphthalene-1-sulfonic acid sodium salt], the IC50 under setting [1] was 230 nM.
Same read-out and setting: then `Nc1c(/N=N/c2cccc(OCc3ccccn3)c2)cc(S(=O)(=O)O)c2ccccc12` [Example 137, 4-amino-3-[3-(pyridine-2-ylmethoxy)phenylazo]naphthalene-1-sulfonic acid sodium salt], with 610 nM.
Consider `Nc1c(/N=N/c2ccc(C(F)(F)F)cc2)cc(S(=O)(=O)O)c2ccccc12` [Example 95, 4-amino-3-(4-trifluoromethylphenylazo)naphthalene-1-sulfonic acid sodium salt], for which the IC50 under setting [1] turned out to be 393 nM.
Consider `COc1ccc(-c2ccc(/N=N/c3cc(S(=O)(=O)O)c4ccccc4c3N)cn2)cc1` [Example 26, 4-amino-3-[6-(4-methoxyphenyl)pyridine-3-ylazo]naphthalene-1-sulfonic acid sodium salt], for which the IC50 under setting [1] turned out to be 304 nM.
The same measure, in the same setting: to `Cc1ccc(-c2ccc(/N=N/c3cc(S(=O)(=O)O)c4ccccc4c3N)cn2)cc1` [Example 8, 4-amino-3-(6-p-tolylpyridine-3-ylazo)naphthalene-1-sulfonic acid sodium salt] belongs 430 nM.
Still for that read-out and setting: then `Nc1c(/N=N/c2ccc(-c3ccccc3Oc3ccccc3)nc2)cc(S(=O)(=O)O)c2ccccc12` [Example 29, 4-amino-3-[6-(2-phenoxyphenyl)pyridine-3-ylazo]naphthalene-1-sulfonic acid sodium salt], with 287 nM; and `Nc1c(/N=N/c2cccnc2-c2ccccc2)cc(S(=O)(=O)O)c2ccccc12` [Example 50, 4-amino-3-(2-phenylpyridine-3-ylazo)naphthalene-1-sulfonic acid sodium salt], with 468 nM.
With `N#Cc1cc(/N=N/c2ccc(-c3ccccc3)nc2)c(N)c2ccccc12` [Example 12, sodium salt], the IC50 under setting [2] is greater than 10000 nM.
On to `Nc1c(/N=N/c2ccc(Cl)cc2)cc(S(=O)(=O)O)c2ccccc12` [Example 100, 4-amino-3-(4-chlorophenylazo)naphthalene-1-sulfonic acid sodium salt], for which the IC50 under setting [1] is 408 nM.
In the case of `Cc1ccc(/N=N/c2cc(S(=O)(=O)O)c3ccccc3c2N)cc1` [Example 122, 4-amino-3-p-tolylazonaphthalene-1-sulfonic acid sodium salt], under setting [1], the IC50 stood at 849 nM.
The same measure, in the same setting: to `Cc1ccc2cccc(-c3ccc(/N=N/c4cc(S(=O)(=O)O)c5ccccc5c4N)cn3)c2n1` [Example 84, 4-amino-3-[6-(2-methylquinoline-8-yl)pyridine-3-ylazo]naphthalene-1-sulfonic acid sodium salt] belongs 567 nM.
The same measure, in the same setting: then `Nc1c(/N=N/c2ccc(OCc3cccnc3)cc2)cc(S(=O)(=O)O)c2ccccc12` [Example 135, 4-amino-3-[4-(pyridine-3-ylmethoxy)phenylazo]naphthalene-1-sulfonic acid sodium salt], with 716 nM; and `Nc1c(/N=N/c2ccc(Br)cc2Br)cc(S(=O)(=O)O)c2ccccc12` [Example 113, 4-amino-3-(2,4-dibromophenylazo)naphthalene-1-sulfonic acid sodium salt], with 266 nM; and `CC(C)COc1ccccc1-c1ccc(/N=N/c2cc(S(=O)(=O)O)c3ccccc3c2N)cn1` [Example 67, 4-amino-3-[6-(2-isobutoxyphenyl)pyridine-3-ylazo]naphthalene-1-sulfonic acid sodium salt], with 130 nM.
Still for that read-out and setting: to `Nc1c(/N=N/c2ccc(Br)cc2)cc(S(=O)(=O)O)c2ccccc12` [Example 110, 4-amino-3-(4-bromophenylazo)naphthalene-1-sulfonic acid sodium salt] belongs 226 nM.
As for `Nc1c(/N=N/c2ccc(OCC3CCCO3)nc2)cc(S(=O)(=O)O)c2ccccc12` (centres unmarked) [Example 4, 4-amino-3-[6-(tetrahydrofuran-2-ylmethoxy)pyridine-3-ylazo]-1-naphthalenesulfonic acid sodium salt], the half-inhibitory concentration (IC50) under setting [1] worked out at 407 nM.
The same measure, in the same setting: to `Nc1c(/N=N/c2ccc(-c3cccc4cccnc34)nc2)cc(S(=O)(=O)O)c2ccccc12` [Example 83, 4-amino-3-(6-quinoline-8-ylpyridine-3-ylazo)naphthalene-1-sulfonic acid sodium salt] belongs 350 nM.
Take `N#Cc1ccc(/N=N/c2cc(S(=O)(=O)O)c3ccccc3c2N)cc1` [Example 107, 4-amino-3-(4-cyanophenylazo)naphthalene-1-sulfonic acid sodium salt]: the IC50 under setting [1] is 540 nM.
Same read-out and setting: to `N#Cc1cc(Cl)ccc1/N=N/c1cc(S(=O)(=O)O)c2ccccc2c1N` [Example 118, 4-amino-3-(4-chloro-2-cyanophenylazo)naphthalene-1-sulfonic acid sodium salt] belongs 105 nM.
Same read-out and setting: then `Nc1c(/N=N/c2ccccc2OCc2ccccn2)cc(S(=O)(=O)O)c2ccccc12` [Example 140, 4-amino-3-[2-(pyridine-2-ylmethoxy)phenylazo]naphthalene-1-sulfonic acid sodium salt], with 596 nM; and `Nc1c(/N=N/c2ccccc2)cc(S(=O)(=O)O)c2ccccc12` [Example 93, 4-amino-3-phenylazonaphthalene-1-sulfonic acid sodium salt], with 762 nM.
